Laboratory results taken from article PMC10287695, “Non-covalent inhibitors of thioredoxin glutathione reductase with schistosomicidal activity in vivo” (Nature Communications, 2023).
“And” between values parts separate entries of the source, which are not always exact repeats. Equal entries are not always repeated.

System: TGR in newly transformed schistosomula (NTS)
Test: TGR inhibition in NTS with TRFS-Green fluorescent probe;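 note: untreated reference is NTS exposed to TRFS-Green probe alone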
Format: cell-based, S. mansoni
Conditions: NTS
Procedure: TGR inhibition in NTS was assessed using a fluorescent probe TRFS-Green (Medchemexpress)[43]. NTS prepared as previously described and cultured in M199 supplemented with 5.5 mM D-glucose, penicillin-streptomycin and 5% heat inactivated fetal bovine serum were incubated at 37 °C in a clear bottom flat well plate in a 5% CO2 incubator overnight. […] NTS were further treated with TRFS-Green (10 µM) for additional 4 h and rinsed with M199 medium to remove residual TRFS-Green. Fluorescence images were obtained using Keyence BZ-X800. The quantification of fluorescence intensity upon the uptake of TRFS-Green by NTS was performed by a fluorescent microplate imager (BioTek Cytation3) (excitation, 438 nm; emission, 538 nm) hourly for 5 h and after 24 h.

Row | SMILES | TGR inhibition visualized by TRFS-Green, Average (1hr, 5 µM) | TGR inhibition visualized by TRFS-Green, single replicate (1hr, 5 µM) | TGR inhibition visualized by TRFS-Green, Average (1hr, 15 µM) | TGR inhibition visualized by TRFS-Green, single replicate (1hr, 15 µM) | TGR inhibition visualized by TRFS-Green, Average (1hr, 30 µM) | TGR inhibition visualized by TRFS-Green, single replicate (1hr, 30 µM) | TGR inhibition visualized by TRFS-Green, Average (2hr, 5 µM) | TGR inhibition visualized by TRFS-Green, single replicate (2hr, 5 µM) | TGR inhibition visualized by TRFS-Green, Average (2hr, 15 µM) | TGR inhibition visualized by TRFS-Green, single replicate (2hr, 15 µM) | TGR inhibition visualized by TRFS-Green, Average (2hr, 30 µM) | TGR inhibition visualized by TRFS-Green, single replicate (2hr, 30 µM) | TGR inhibition visualized by TRFS-Green, Average (3hr, 5 µM) | TGR inhibition visualized by TRFS-Green, single replicate (3hr, 5 µM) | TGR inhibition visualized by TRFS-Green, Average (3hr, 15 µM) | TGR inhibition visualized by TRFS-Green, single replicate (3hr, 15 µM) | TGR inhibition visualized by TRFS-Green, Average (3hr, 30 µM) | TGR inhibition visualized by TRFS-Green, single replicate (3hr, 30 µM) | TGR inhibition visualized by TRFS-Green, Average (4hr, 5 µM) | TGR inhibition visualized by TRFS-Green, single replicate (4hr, 5 µM) | other results
1 | CCc1ccccc1-c1nc(CN[C@@H]2C[C@@H]3C[C@H]([C@H]2C)C3(C)C)c(C)o1 [C2 (8VP101)] | 10460.5 | 10308 and 10613 | 10104 | 10086 and 10122 | 9753 | 9694 and 9812 | 13787 | 13840 and 13734 | 11633.5 | 11622 and 11645 | 11195 | 11148 and 11242 | 19344 | 19467 and 19221 | 14723.5 | 14460 and 14987 | 13932.5 | 14033 and 13832 | 23362.5 | 23074 and 23651 | TGR inhibition visualized by TRFS-Green, Average (4hr, 15 µM): 14824.5; TGR inhibition visualized by TRFS-Green, single replicate (4hr, 15 µM): 14826 and 14823; TGR inhibition visualized by TRFS-Green, Average (4hr, 30 µM): 13941.5; TGR inhibition visualized by TRFS-Green, single replicate (4hr, 30 µM): 13992 and 13891; TGR inhibition visualized by TRFS-Green, Average (5hr, 5 µM): 26593; TGR inhibition visualized by TRFS-Green, single replicate (5hr, 5 µM): 26274 and 26912; TGR inhibition visualized by TRFS-Green, Average (5hr, 15 µM): 16217; TGR inhibition visualized by TRFS-Green, single replicate (5hr, 15 µM): 16278 and 16156; TGR inhibition visualized by TRFS-Green, Average (5hr, 30 µM): 14810; TGR inhibition visualized by TRFS-Green, single replicate (5hr, 30 µM): 14697 and 14923; TGR inhibition visualized by TRFS-Green, Average (24hr, 5 µM): 29329.8; TGR inhibition visualized by TRFS-Green, single replicate (24hr, 5 µM): 29329.8; TGR inhibition visualized by TRFS-Green, Average (24hr, 15 µM): 17780.7; TGR inhibition visualized by TRFS-Green, single replicate (24hr, 15 µM): 17780.7; TGR inhibition visualized by TRFS-Green, Average (24hr, 30 µM): 15410.9; TGR inhibition visualized by TRFS-Green, single replicate (24hr, 30 µM): 15410.9
2 | Cc1oc(C2CCCCC2)nc1C(=O)N[C@@H]1C[C@@H]2C[C@H]([C@H]1C)C2(C)C [C7 (8VP108)] | 12657 | 12650 and 12664 | 10865 | 11062 and 10668 | 10431.5 | 10627 and 10236 | 18963 | 19690 and 18236 | 17493 | 17993 and 16993 | 16380.5 | 16170 and 16591 | 32388.5 | 32805 and 31972 | 28933.5 | 28944 and 28923 | 28582 | 28060 and 29104 | 35273.5 | 35655 and 34892 | TGR inhibition visualized by TRFS-Green, Average (4hr, 15 µM): 29029; TGR inhibition visualized by TRFS-Green, single replicate (4hr, 15 µM): 29202 and 28856; TGR inhibition visualized by TRFS-Green, Average (4hr, 30 µM): 28478.5; TGR inhibition visualized by TRFS-Green, single replicate (4hr, 30 µM): 28833 and 28124; TGR inhibition visualized by TRFS-Green, Average (5hr, 5 µM): 39296; TGR inhibition visualized by TRFS-Green, single replicate (5hr, 5 µM): 39469 and 39123; TGR inhibition visualized by TRFS-Green, Average (5hr, 15 µM): 32855.5; TGR inhibition visualized by TRFS-Green, single replicate (5hr, 15 µM): 32828 and 32883; TGR inhibition visualized by TRFS-Green, Average (5hr, 30 µM): 29603; TGR inhibition visualized by TRFS-Green, single replicate (5hr, 30 µM): 29933 and 29273; TGR inhibition visualized by TRFS-Green, Average (24hr, 5 µM): 44285; TGR inhibition visualized by TRFS-Green, single replicate (24hr, 5 µM): 44288 and 44282; TGR inhibition visualized by TRFS-Green, Average (24hr, 15 µM): 35708; TGR inhibition visualized by TRFS-Green, single replicate (24hr, 15 µM): 35593 and 35823; TGR inhibition visualized by TRFS-Green, Average (24hr, 30 µM): 33705.5; TGR inhibition visualized by TRFS-Green, single replicate (24hr, 30 µM): 33980 and 33431
3 | C[C@@H]1[C@H]2C[C@@H](C[C@H]1NCc1nc3ccccc3n1C)C2(C)C [C12 (8VP51)] | 11939.5 | 11982 and 11897 | 10673 | 10612 and 10734 | 10618.5 | 10903 and 10334 | 23845.5 | 23846 and 23845 | 20564.5 | 20516 and 20613 | 19325.5 | 19387 and 19264 | 33943 | 33973 and 33913 | 30062 | 30013 and 30111 | 28073.5 | 28013 and 28134 | 35461 | 35481 and 35441 | TGR inhibition visualized by TRFS-Green, Average (4hr, 15 µM): 33991.5; TGR inhibition visualized by TRFS-Green, single replicate (4hr, 15 µM): 33999 and 33984; TGR inhibition visualized by TRFS-Green, Average (4hr, 30 µM): 32914; TGR inhibition visualized by TRFS-Green, single replicate (4hr, 30 µM): 32993 and 32835; TGR inhibition visualized by TRFS-Green, Average (5hr, 5 µM): 41567.5; TGR inhibition visualized by TRFS-Green, single replicate (5hr, 5 µM): 41048 and 42087; TGR inhibition visualized by TRFS-Green, Average (5hr, 15 µM): 38445; TGR inhibition visualized by TRFS-Green, single replicate (5hr, 15 µM): 39026 and 37864; TGR inhibition visualized by TRFS-Green, Average (5hr, 30 µM): 33178.5; TGR inhibition visualized by TRFS-Green, single replicate (5hr, 30 µM): 33374 and 32983; TGR inhibition visualized by TRFS-Green, Average (24hr, 5 µM): 78091; TGR inhibition visualized by TRFS-Green, single replicate (24hr, 5 µM): 78082 and 78100; TGR inhibition visualized by TRFS-Green, Average (24hr, 15 µM): 70233; TGR inhibition visualized by TRFS-Green, single replicate (24hr, 15 µM): 70452 and 70014; TGR inhibition visualized by TRFS-Green, Average (24hr, 30 µM): 60492.5; TGR inhibition visualized by TRFS-Green, single replicate (24hr, 30 µM): 60864 and 60121
4 | Cc1oc(-c2ccc3c(c2)OCO3)nc1CN[C@@H]1C[C@@H]2C[C@H]([C@H]1C)C2(C)C [C1 (8VP70)] | 10571.8 | 10560.7 and 10583 | 9457 | 9312 and 9602 | 9252.5 | 9204 and 9301 | 14162 | 14242 and 14082 | 13529 | 13095 and 13963 | 11887.5 | 11941 and 11834 | 23711 | 23581 and 23841 | 21817.5 | 21984 and 21651 | 16831 | 16892 and 16770 | 25462.5 | 25241 and 25684 | TGR inhibition visualized by TRFS-Green, Average (4hr, 15 µM): 21898; TGR inhibition visualized by TRFS-Green, single replicate (4hr, 15 µM): 21795 and 22001; TGR inhibition visualized by TRFS-Green, Average (4hr, 30 µM): 16836.5; TGR inhibition visualized by TRFS-Green, single replicate (4hr, 30 µM): 16939 and 16734; TGR inhibition visualized by TRFS-Green, Average (5hr, 5 µM): 26920; TGR inhibition visualized by TRFS-Green, single replicate (5hr, 5 µM): 26917 and 26923; TGR inhibition visualized by TRFS-Green, Average (5hr, 15 µM): 22092; TGR inhibition visualized by TRFS-Green, single replicate (5hr, 15 µM): 23039 and 21145; TGR inhibition visualized by TRFS-Green, Average (5hr, 30 µM): 16893.5; TGR inhibition visualized by TRFS-Green, single replicate (5hr, 30 µM): 16853 and 16934; TGR inhibition visualized by TRFS-Green, Average (24hr, 5 µM): 28552; TGR inhibition visualized by TRFS-Green, single replicate (24hr, 5 µM): 28103 and 29001; TGR inhibition visualized by TRFS-Green, Average (24hr, 15 µM): 23755.5; TGR inhibition visualized by TRFS-Green, single replicate (24hr, 15 µM): 23599 and 23912; TGR inhibition visualized by TRFS-Green, Average (24hr, 30 µM): 16807; TGR inhibition visualized by TRFS-Green, single replicate (24hr, 30 µM): 16780 and 16834
